In ChEMBL document CHEMBL3992548, “Design, synthesis and biological evaluation of 2,4-disubstituted oxazole derivatives as potential PDE4 inhibitors” (Bioorg Med Chem, 2017) one finds IC50 and inhibition in vivo data, which are given here for 23 compounds.

For test [1], the system named is PBMC. The experiment in a line: Anti-inflammatory activity in human PBMC assessed as inhibition of LPS-induced TNFalpha secretion preincubated for 30 mins followed by LPS stimulation for 18 hrs by TR-FRET assay. Type of test: functional, cell-based. (In general: TR-FRET usually uses a lanthanide donor and a delayed reading to cut background.)
Test [2] concerns the target 3',5'-cyclic-AMP phosphodiesterase 4B (Homo sapiens, UniProt Q07343). The test can be described thus: Inhibition of human U937 cells-derived PDE4B using [3H]cAMP as substrate after 30 mins.
Test [3] relates to Rattus norvegicus. The test can be described thus: Anti-inflammatory activity in Sprague-Dawley rat model of LPS-induced asthma/COPD assessed as inhibition of neutrophilia in lungs at 10 mg/kg, po administered 30 mins prior to LPS challenge for 40 mins measured after 6 hrs relative to control. Type of test: functional.
Test [4] concerns Mus musculus. The test can be described thus: Anti-inflammatory activity in LPS-induced Swiss albino mouse sepsis model assessed as inhibition of TNF-alpha release in serum at 10 mg/kg, po administered 30 mins prior to LPS challenge measured after 90 mins by ELISA relative to control. It is filed as functional. A general note: In an ELISA, binding on a coated surface is turned into a signal by an enzyme label.

Test [5] concerns the target 3',5'-cyclic-AMP phosphodiesterase 4D (Homo sapiens, UniProt Q08499). The test can be described thus: Inhibition of human U937 cells-derived PDE4D using [3H]cAMP as substrate after 30 mins.

Chain of 3',5'-cyclic-AMP phosphodiesterase 4B (Q07343 whole entry): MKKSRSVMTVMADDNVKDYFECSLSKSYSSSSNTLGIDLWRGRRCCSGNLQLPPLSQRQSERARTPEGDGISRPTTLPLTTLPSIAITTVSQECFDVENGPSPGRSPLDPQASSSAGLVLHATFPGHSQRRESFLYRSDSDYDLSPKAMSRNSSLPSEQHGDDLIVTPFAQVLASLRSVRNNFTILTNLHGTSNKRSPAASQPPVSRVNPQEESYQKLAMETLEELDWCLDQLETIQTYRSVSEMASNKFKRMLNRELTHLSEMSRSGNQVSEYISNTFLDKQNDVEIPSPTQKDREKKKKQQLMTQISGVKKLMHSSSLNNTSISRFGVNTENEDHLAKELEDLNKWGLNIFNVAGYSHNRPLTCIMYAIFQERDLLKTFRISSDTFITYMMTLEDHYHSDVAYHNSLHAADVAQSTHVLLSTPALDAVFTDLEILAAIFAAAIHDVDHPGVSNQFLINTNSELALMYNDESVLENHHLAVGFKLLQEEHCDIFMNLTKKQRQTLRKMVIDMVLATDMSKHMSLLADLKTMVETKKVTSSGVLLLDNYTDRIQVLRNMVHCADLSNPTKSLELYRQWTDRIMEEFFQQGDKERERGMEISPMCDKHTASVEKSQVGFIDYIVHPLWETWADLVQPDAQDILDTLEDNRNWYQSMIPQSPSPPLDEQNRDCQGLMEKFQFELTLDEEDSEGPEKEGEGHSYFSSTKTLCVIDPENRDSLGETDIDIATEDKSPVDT
Chain of 3',5'-cyclic-AMP phosphodiesterase 4D (Q08499 whole entry): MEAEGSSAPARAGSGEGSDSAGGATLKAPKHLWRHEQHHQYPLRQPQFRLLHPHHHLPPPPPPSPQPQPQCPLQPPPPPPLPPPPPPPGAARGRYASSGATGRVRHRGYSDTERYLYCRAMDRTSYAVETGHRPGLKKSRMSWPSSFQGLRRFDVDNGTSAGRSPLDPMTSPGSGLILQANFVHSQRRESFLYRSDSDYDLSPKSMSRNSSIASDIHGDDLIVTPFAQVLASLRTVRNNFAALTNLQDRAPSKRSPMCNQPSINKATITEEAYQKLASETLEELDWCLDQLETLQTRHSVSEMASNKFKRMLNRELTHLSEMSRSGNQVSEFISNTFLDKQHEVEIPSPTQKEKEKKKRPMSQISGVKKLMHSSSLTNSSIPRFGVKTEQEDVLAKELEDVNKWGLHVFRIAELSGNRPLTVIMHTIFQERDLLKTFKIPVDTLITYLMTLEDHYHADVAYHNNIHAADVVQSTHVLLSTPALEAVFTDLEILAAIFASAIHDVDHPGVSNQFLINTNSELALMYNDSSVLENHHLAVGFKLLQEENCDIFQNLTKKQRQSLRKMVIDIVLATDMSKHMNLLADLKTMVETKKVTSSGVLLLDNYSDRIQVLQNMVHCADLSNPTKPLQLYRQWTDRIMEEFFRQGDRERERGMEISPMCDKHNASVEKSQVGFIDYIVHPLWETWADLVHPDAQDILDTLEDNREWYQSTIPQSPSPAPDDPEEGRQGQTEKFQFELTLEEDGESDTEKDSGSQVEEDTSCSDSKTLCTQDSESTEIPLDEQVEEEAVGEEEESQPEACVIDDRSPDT

What is called IC50 is the midpoint of a concentration-inhibition curve. In the case of `Cc1cc(C)n(C(=O)c2coc(-c3ccc(Br)cc3)n2)n1`, the results for the IC50 in test [1] and in test [2] were 168 µM and 54.8 µM, respectively.

In the case of `O=C(c1coc(-c2ccccc2O)n1)n1cccn1`, the IC50 in test [1] worked out at 205 µM; in test [2], 85.6 µM.

Consider `Cc1ccc(-c2nc(C(=O)n3nc(C)cc3C)co2)cc1`, for which the IC50 in test [1] worked out at 36.7 µM; in test [2], 6.7 µM.

As to `O=C(c1coc(-c2cccc(F)c2)n1)n1cccn1`, the values for the IC50 in test [1] and in test [2] were 99.6 µM and 45.1 µM, respectively.

As for `O=C(c1coc(-c2ccc(O)cc2)n1)n1cccn1`, the IC50 was 75.5 µM in test [1] and 18.4 µM in test [2].

As for `Cc1cc(C)n(C(=O)c2coc(-c3cccc(O)c3)n2)n1`, the IC50 in test [1] was found to be 78.4 µM; in test [2], 28.9 µM.

For the compound `O=C(c1coc(-c2ccccc2)n1)n1cccn1`, the values for the IC50 in test [1] and in test [2] were 199 µM and 88.7 µM, respectively.

Turning to `Cc1cc(C)n(C(=O)c2coc(-c3ccccc3)n2)n1`, the figures for the IC50 in test [1] and in test [2] were 199 µM and 75.8 µM, respectively.

As to `O=C(c1coc(-c2ccc(F)cc2)n1)n1cccn1`, the IC50 stood at 54.8 µM in test [1] and 9.8 µM in test [2].

In the case of `Cc1cc(C)n(C(=O)c2coc(-c3cccc(F)c3)n2)n1`, the IC50 stood at 83.4 µM in test [1] and 40.8 µM in test [2].

Regarding `Cc1cc(C)n(C(=O)c2coc(-c3ccc(F)cc3)n2)n1`, the IC50 in test [1] was 29.7 µM; in test [2], 8.4 µM.

By inhibition in vivo is commonly meant the share of the control response that was lost under treatment. `COc1ccc(-c2nc(C(=O)n3cccn3)co2)cc1`: the inhibition in vivo at 10 mg/kg was determined as 22.4% in test [3] and 26.1% in test [4]. Further, the results for the IC50 in test [1], in test [2] and in test [5] were 20.8 µM, 3.2 µM and 8.4 µM, respectively.

As to `COc1ccc(-c2nc(C(=O)n3nc(C)cc3C)co2)cc1`, the values for the inhibition in vivo at 10 mg/kg in test [3] and in test [4] were 39.1% and 42.6%, respectively. In addition, the IC50 turned out to be 10.3 µM in test [1], 1.6 µM in test [2] and 10.6 µM in test [5].

Turning to `Cc1cc(C)n(C(=O)c2coc(-c3ccccc3O)n2)n1`, the results for the IC50 in test [1] and in test [2] were 139 µM and 54.8 µM, respectively.

On to `O=C(c1coc(-c2cccc(O)c2)n1)n1cccn1`, for which the results for the IC50 in test [1] and in test [2] were 88.4 µM and 39.7 µM, respectively.

Turning to `Cc1cc(C)n(C(=O)c2coc(-c3ccc(O)cc3)n2)n1`, the IC50 was 66.4 µM in test [1] and 15.8 µM in test [2].

Turning to `O=C(c1coc(-c2ccc(Cl)cc2)n1)n1cccn1`, the values for the IC50 in test [1] and in test [2] were 40.1 µM and 5.3 µM, respectively.

Regarding `COc1cccc(-c2nc(C(=O)n3cccn3)co2)c1`, the IC50 in test [1] came out at 45.8 µM; in test [2] it was 5.9 µM.

With `O=C(c1coc(-c2ccc(Br)cc2)n1)n1cccn1`, the results for the IC50 in test [1] and in test [2] were 187 µM and 58.7 µM, respectively.

As to `COc1cccc(-c2nc(C(=O)n3nc(C)cc3C)co2)c1`, the results for the IC50 in test [1] and in test [2] were 18.7 µM and 4.5 µM, respectively.

With `Cc1ccc(-c2nc(C(=O)n3cccn3)co2)cc1`, the values for the IC50 in test [1] and in test [2] were 72.4 µM and 17.5 µM, respectively.

In the case of `Cc1cc(C)n(C(=O)c2coc(-c3ccc(Cl)cc3)n2)n1`, the IC50 in test [1] stood at 27.6 µM; in test [2], 4.1 µM.

Consider `COc1ccc(C2CNC(=O)C2)cc1OC1CCCC1` (stereo not drawn) [ROLIPRAM], for which the inhibition in vivo at 10 mg/kg stood at 30.9% in test [3] and 40.8% in test [4]. Also, the IC50 in test [1] was 18.6 µM.
